The values below come from patent publication US8158621B2, “Methods of treating or preventing autoimmune diseases with 2,4-pyrimidinediamine compounds” (Rigel Pharmaceuticals, Inc., priority 2002, dated 2012).

Several values for one entry are separate records, joined by “and”; a condition that tells them apart may be missing. Equal values may be shown once.

The test system of test [1] is cultured human mast cells (CHMC). The test is described as follows: CHMC low cell density IgE activation: tryptase assay. The class given is cell-based. To be noted: low cell density; read-out: CHMC anti-IgE Tryptase. The gist of the method:
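Low-density CHMC assay: donor-adjusted 1000-1500 cells/well, MT buffer, 1 hr 37° C preincubation; anti-IgE stimulus 30 min 37° C versus MT-only controls; supernatant tryptase by substrate, 30 min RT.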

The test system is the same in test [2]. The test is described as follows: CHMC low cell density ionomycin activation: tryptase assay. The format is cell-based. To be noted: low cell density; read-out: CHMC Ionomycin Tryptase.
Test [3] relates to bone marrow derived mast cells (BMMC). The test is described as follows: BMMC high cell density IgE activation: hexosaminidase. The format is cell-based, mouse. The conditions noted are these: high cell density; read-out: BMMC anti-IgE Hexos. How it is done: (§1) After sensitizing, cells are counted, pelleted (1000 rpm, 5-10 minutes), and resuspended at 1-3×10^6 cells/ml in MT buffer. Add 100 ul of cell suspension to each well and 100 ul of compound dilutions. The final vehicle concentration is 0.5% DMSO. Incubate at 37° C. (5% CO2) for 1 hour. After 1 hour of compound treatment, stimulate cells with 6× stimulus (60 ng/ml DNP-BSA). Mix wells with the cells and allow plates to incubate at 37° C. (5% CO2) for one hour. After 1 hour incubation, pellet cells (10 minutes, 1000 RPM) and collect 200 ul per well of the supernatant, being careful not to disturb pellet, and transfer to a clean tube or 96-well plate. Place the supernatant plate on ice. During the 4-5 hour step (see next) perform the hexosiminidase assay. Resuspend cell pellet in 240 ul WEI-conditioned media containing 0.5% DMSO and corresponding concentration of compound. Incubate BMMC cells for 4-5 hours at 37° C. (5% CO2). After incubation, pellet cells (1000 RPM, 10 minutes) and collect 225 ul per well and place in −80° C. until ready to perform ELISAS. ELISAS are performed on appropriately diluted samples (determined empirically for each donor cell population so that the sample measurement falls within the standard curve) following the supplier's instructions.
Add 50 uL of BMMC cell supernatant (see above) to the hexoseaminidase substrate, place at 37° C. for 30 minutes and read the plate at 5, 10, 15, and 30 minutes on a spectrophotometer.

The test system is the same in test [4]. The test is described as follows: BMMC high cell density IgE activation: TNFalpha. The conditions noted are these: high cell density; read-out: BMMC anti-IgE TNF-alpha. The format is cell-based, mouse. As to the method: as §1
The test system is the same in test [5]. The test is described as follows: BMMC high cell density IgE activation: IL-6. The class given is cell-based, mouse. The conditions noted are these: high cell density; read-out: BMMC anti-IgE IL-6. As to the method: as §1
The target of a further test is T1, Syk kinase (Homo sapiens, UniProt P43405).
T1 construct: purchased Upstate, Lake Placid NY
The test is described as follows: Syk kinase biochemical fluorescence polarization assay. The conditions noted are these: isolated Syk kinase, fluorescence polarization, 4 uM ATP. (In general: Polarisation of emitted light reports the rotation of a fluorescent probe.)

The subject of test [6] is differentiated human macrophages. The test is described as follows: Macrophage activation, IgG stimulation: TNF. The format is cell-based. To be noted: stimulus (IgG or LPS) not given; read-out: Monocytes/Macrophage TNF IC50. How it is done:
Purity was assessed by measuring the percentage of CD14+ cells by flow cytometry.
A negative control consisting of the F(ab′)2 fragment was also coated to assess background stimulation. Unbound antibody was washed away 2× with 200 ul PBS. […] The cells were incubated for 16 hr in a 37° C. incubator, and supernatants were collected for Luminex analysis for IL-6 and TNFα, essentially as described for the primary T-cells, above.

Test [7] has the same test system. In words: Macrophage activation, IgG stimulation: IL-6. The class given is cell-based. To be noted: stimulus (IgG or LPS) not given; read-out: Monocytes/Macrophage IL-6 IC50. How it is done: CD 14+ monocytes were purified from PBMC (Allcells # PB002) using the Monocyte Isolation kit (Miltenyi biotec #130-045-501) as per the manufacturer's instructions. Purity was assessed by measuring the percentage of CD14+ cells by flow cytometry. Typically >90% purity is achieved. The purified CD14+ cells are then plated out (6×10^6 cells/150 cm TC dish in 15 mls media) in Macrophage-SFM (Gibco #12065-074) with 100 ng/ml of M-CSF (Pepro Tech #300-25) and allowed to differentiate for five days. At the end of that period, cell morphology and cell surface markers (CD14, HLA-DR, B7.1, B7.2, CD64, CD32, and CD16) reflected the presence of mature differentiated macrophage.
A negative control consisting of the F(ab′)2 fragment was also coated to assess background stimulation. Unbound antibody was washed away 2× with 200 ul PBS. 20 ul of 5× compound was added to each well, followed by the addition 15 k cells of differentiated macrophage in 80 uL that had been scraped off of the plates. The cells were incubated for 16 hr in a 37° C. incubator, and supernatants were collected for Luminex analysis for IL-6 and TNFα, essentially as described for the primary T-cells, above.
Varied concentrations of compound were compared to solvent only to determine the IC50 of each compound for each cytokine Representative IC50 s for 2,4-pyrimidinediamine compounds of the invention are shown in Table 11.

In test [8] the test system is Human Jurkat T-cells (clone N). In words: Jurkat T-cell activation (anti-TCR, CD69 upregulation). The class given is cell-based. The gist of the method: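 Jurkat cells in RPMI + 5% FBS preincubated with compound 1 h at 37 °C, then stimulated with anti-TCR C305 at 500 ng/ml for 20 h. CD69 surface expression stained with anti-CD69-APC and read by flow cytometry; IC50 versus solvent-only control.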

Test [9] can be described thus: Mouse Reverse Passive Arthus reaction (RPA reaction). The class given is in vivo, C57BL/6 mice. The conditions noted are these: oral, 200 mg/kg. In outline:
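C57BL/6 mice dosed with compound before challenge, pretreatment time set by each compound's PK; rabbit anti-OVA IgG (50 μg/mouse) given intradermally, then ovalbumin 20 mg/kg i.v. with 1% Evans blue. Dorsal skin edema and hemorrhage read by dye extravasation at 4 h; purified polyclonal rabbit IgG as control.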

A further test concerns Primary human B-cells. In words: Primary B-cell activation (α-IgM, CD69 upregulation). The class given is cell-based. To be noted: read-out: 1° B-Cell CD69 IC50. As to the method: Primary human B-cells were isolated from buffy coat, the white cell layer that forms between the red cells and the […] when anti-coagulated blood is centrifuged, or from fresh blood using CD19-Dynal® beads and a FACS. Buffy coat was obtained from the Stanford Medical School Blood Centre, prepared on the same day by the blood bank, stored and transported cold (with ice). The buffy coat (approx 35 mL) was placed in a 500 mL conical sterile centrifuge pot and cooled on ice, then diluted with cold PBS containing 0.2% BSA (Sigma: A7638) and sodium citrate (0.1%, Sigma: S-5570) (P—B—C) to a total volume of 200 mL and mixed gently. Fresh blood was collected from donors in 10 mL vacutainers containing heparin (1 vacutainer collects approximately 8.5 mL blood). The blood was cooled on ice, transferred into 50 mL falcon tubes (20 mL/tube) or a 500 mL conical sterile centrifuge pot, and diluted with an equal volume P—B—C.
25 mL diluted blood or buffy coat was layered onto 15 mL cold ficoll and placed back on ice. The ficoll layered blood was centrifuged (Beckman GS-6R) for 45 minutes at 2000 rpm, 4° C. to separate the Peripheral Blood Mononuclear Cells (PBMC) from the Red Blood Cells (RBC) and granulocytes. The top aqueous layer was then aspirated until 1 inch above the PBMC layer. The PBMCs were transferred from every 2 ficoll tubes into one clean 50 mL falcon tube (=approx 10 mL/tube). The transferred PBMCs were diluted 5× with icecold PBS with 0.2% BSA (P—B) and centrifuged for 20 min at 1400 rpm and 4° C. The supernatant (this may be cloudy) was then aspirated and the PBMCs resuspended into 25 mL P—B and the cells counted (using a 1:5 dilution) and kept on ice.
The cells were then positively selected using anti-CD 19 antibody coupled to magnetic beads (Dynal®) as per manufacturer's instructions. The approximate required amount of CD19-Dynal® beads (CD19-coated dyna beads M-450 (pabB), Dynal®) was calculated by estimating the number of B-cells as 5% of PBMCs counted and adding approximately10 beads per cell from the bead stock (4×10^8 beads/mL). The CD19-Dynal® beads were washed 2× in P—B in a 5 mL tube using the Dynal® magnet, then added into the suspended PBMCs. This mixture was then passed through the Dynal® magnet and washed several times to separate the bead-bound cells.
After separation, the beads and antibody were removed using Dynal® CD19-DETACHaBEAD® for 45 min at 30° C. Yield is typically 2×10^7 B-cells per buffy coat. B-cells were washed and resuspended as 1E6 cells/mL in RPMI1640+10% FBS+Penicillin/[…]+1 ng/mL IFNα8. Cells were rested overnight at 37° C. and 5% CO2.
The following day, cells were washed and resuspended in RPMI+2.5% FBS to 1×10^6 cells/mL. Cells were then aliquoted into a V-bottom 96-well plate (Corning) at 65 uL cells per well. By robot, 65 uL of a 2× compound was added to the cells with final concentration of DMSO at 0.2%, and incubated for 1 hr at 37° C. Cells were then stimulated with 20 uL 7.5× α-IgM from Jackson laboratories (final 5 ug/mL) for 24 hrs. At day 3, the cells were spun down and stained for CD69 and analyzed by FACS gated on the live cells (by light scatter).
Varied concentrations of compound were compared to solvent only to determine the inhibition of B-cell activation IC50 of each compound.

Consider `COc1ccc(Nc2nc(Nc3ccc4cc[nH]c4c3)ncc2F)cc1Cl` [Compound R926976], for which the IC50 turned out to be 305 nM in test [1]; 8300 nM in [2]; 590 nM in [3]; 110 nM in test [4]; 250 nM in [5]; 421 nM against Syk kinase. Further, the IC50 in [6] was found to be 4370 nM; in [7], 7620 nM.

`COc1ccc(Nc2ncc(F)c(Nc3ccc4c(c3)NC(=O)[C@@H](C)O4)n2)cc1Cl` [Compound R909322]: the IC50 in [1] was 225 nM; in test [2], > 10000 nM; in [3] it was 240 nM; in test [4], 140 nM; in test [5], 100 nM; on Syk kinase, 141 nM. The IC50 in test [8] was 3030 nM; in [6], 1260 nM; in test [7], 839 nM.

Regarding `CNC(=O)COc1cccc(Nc2ncc(F)c(Nc3ccc(OC)c(Cl)c3)n2)c1` [Compound R926891], the “inhibition of edema formation” value in [9] (60 minutes prior to challenge) is on record as 54.9%. Moreover, the “% inhibition to vehicle control Edema Size ± SEM” value in test [9] (pretreatment time 0.5 hrs) was 44.8 ± 3.0%; in test [9] (pretreatment time 1 hrs), 46.2 ± 4.1% and 54.9%; in test [9] (pretreatment time 1.5 hrs) it was 28.1 ± 10.6%. Moreover, the IC50 came to 1550 nM in test [8], 803 nM in the test on Primary human B-cells, 1140 nM in test [6] and 942 nM in test [7].

On to `Cc1cccc(C)c1Nc1ncc(F)c(Nc2ccc3c(c2)NC(=O)C(C)(C)O3)n1` [Compound R927069], for which the IC50 in [1] amounted to 76 nM; in [2], 13000 nM; in test [3] it was 1350 nM; in test [4], 930 nM; in [5] it was 1090 nM; at Syk kinase it was 111 nM. Besides, the IC50 worked out at 930 nM in test [8], 8500 nM in test [6] and 5650 nM in test [7].

For the compound `Cn1ncc2ccc(Nc3ncc(F)c(Nc4ccc5c(c4)NC(=O)C(C)(C)O5)n3)cc21` [Compound R940366], the IC50 worked out at 37 nM in test [1]; 40000 nM in test [2]; 30 nM in test [3]; 5 nM in test [4]; 10 nM in [5]; 3 nM on Syk kinase. For the same compound, the results for the IC50 in test [8], in test [6] and in test [7] were 86 nM, 86 nM and 97 nM, respectively.
